In patent publication US7968098B2, “HLA-A24-binding KIF-derived peptide” (Kurume University, priority 2006, dated 2011):
Read-outs that look alike come from different tables or passages of the source. No end group written: not given here.

How the values were obtained:
[1] = tested on: anti-peptide immunoglobulin G (IgG) in plasma; assay: Anti-peptide IgG in plasma measured by the Luminex system; assay type: binding, human; settings: for Positive cases/total cases, Patients: Table 3, IgGs reactive to peptide in plasma of glioma patients; for Positive cases/total cases, Healthy donors: Table 3, IgGs reactive to peptide in plasma of healthy donors; for Positive cases/total cases, Total: Table 3, patients plus healthy donors; for Recognition by IgGs in the plasma compared with the other peptides: plasma of glioma patients and healthy donors; for Total (IgG-positive cases/total cases): positive = >1.25 times no peptide control
Experimental: The levels of anti-peptide immunoglobulin G (IgG) were measured by the Luminex™ system as previously reported (Komatsu N et al, Scand J Clin Invest 2004; 64: 1-11). In brief, plasma was incubated with 25 μl of peptide-coupled color-coded beads (Luminex Corp., Austin, Tex., USA) for 2 h at room temperature on a plate shaker. After incubation, the mixture was washed with a vacuum manifold apparatus and incubated with 100 μl of biotinylated goat anti-human IgG (BA-3080, Vector Laboratories, Burlingame, Calif., USA) for 1 h at room temperature. The plate was then washed, and 100 μl of streptavidin-PE (S-866, Molecular Probes, Eugene, Oreg., USA) was added to each well and was incubated for 30 min at room temperature on a plate shaker. The bound beads were washed three times followed by the addition of 100 μl of Tween-PBS to each well. Fifty μl of each sample was then examined using the Luminex™ system.
Next, the abilities of the KIF-derived peptides to be recognized by IgGs of glioma patients were examined, because IgGs reactive to CTL-directed peptides are detectable in the plasma of patients with different types of cancer (Nakatsura T et al, Eur J Immunol 32: 826-836, 2002), along with that levels of IgG well correlated with clinical responses of patients who received peptide vaccination as reported previously (Mine T et al, Clin Cancer Res 10: 929-937, 2004; Yajima N et al, Clin Cancer Res 11: 5900-5911, 2005). IgGs reactive to a corresponding peptide were judged to be significant when the immunofluorescence intensity in 1:100-diluted plasma exceeded 1.25 times that of the control samples with no peptides. […] Based on these findings, these 8 KIF peptides (3 for KIF1C, 3 for KIF3C, and 2 for KIF21B) were the focus of the following experiments.

[2] = tested on: PBMCs of HLA-A24+ glioma patients; assay type: cell-based, human; settings: for IFN-γ: vs HIV peptide
KNS-81 cells = assay: 6-h 51Cr-release cytotoxicity assay of peptide-stimulated PBMCs / CD8+ T cells; assay type: cell-based, human; settings: for Cytotoxicity of peptide-induced CD8+ T cells on addition of anti-HLA class I mAb / Cytotoxicity on addition of unlabeled C1R-A24 cells pre-pulsed with corresponding KIF peptide (cold inhibition): KNS-81 cells; for Cytotoxicity of peptide-induced CD8+ T cells on addition of anti-HLA class I mAb: FIG. 3A, not inhibited by anti-HLA class II (HLA-DR) or anti-CD14 mAb; for Cytotoxicity on addition of unlabeled C1R-A24 cells pre-pulsed with corresponding KIF peptide (cold inhibition): FIG. 3B, not inhibited by HIV peptide-pulsed C1R-A24 cells; for Cytotoxicity of peptide-stimulated PBMCs against KNS-81 cells: patients 3 and 5, HLA-A24+ KNS-81 vs HLA-A24- No. 11 cells and HLA-A24+ T-cell blasts
Experimental: Peptide-stimulated PBMCs were tested for their cytotoxicity against No. 11 (HLA-A24 negative) and KNS-81 (HLA-A24 positive) by a standard 6-h ^51Cr-release assay. Phytohaemagglutinin (PHA)-activated T cells (T cell blast) from HLA-A24 positive healthy donors were used as a negative control. The PBMCs were stimulated with each of the KIF peptides (10 μg/ml) in the presence of IL-2 (100 units/ml) every 3 days for 15 days, followed by incubation with IL-2 alone for an additional 15 days. After CD8^+ T cells were positively isolated using a CD8-positive isolation kit (Dynal, Oslo, Norway), 2,000 ^51Cr-labeled cells per well were cultured with effector cells in 96-round-well plates. The specific ^51Cr-release was calculated according to the following formula: % specific lysis=(test sample release−spontaneous release)×100/(maximum release−spontaneous release). Spontaneous release was determined using the supernatant of the sample incubated with no effector cells, and the maximum release was then determined by the supernatant of the sample incubated with 1% Triton X (Wako Pure Chemical Industries, Osaka, Japan). In some experiments, anti-HLA class I (W6/32, mouse IgG2a) (BioLegend, Camino Santa Fe, San Diego, Calif., USA), anti-HLA class II (HLA-DR) (L243, mouse IgG2a) (ATCC #HB-55), and anti-CD14 (JML-H14, mouse IgG2a) (established in Department of Immunology, Kurume University) mAb were added to the wells at the initiation of the culture. The specificity of peptide-stimulated PBMCs was also confirmed by a cold inhibition assay. 20,000 unlabeled C1R-A24 cells, which were pre-pulsed with either the HIV peptide or a corresponding peptide, were used as cold target cells. Unlabeled C1R-A24 cells were added at a hot to cold target ratio of […].

[3] = HLA-A24+ glioma patients, positive = P<0.05 and >100 pg/ml IFN-γ over HIV peptide
[4] = PBMCs of HLA-A24+ glioma Patient 1, 10 μg/ml peptide
[5] = PBMCs of HLA-A24+ glioma Patient 2, 10 μg/ml peptide
[6] = PBMCs of HLA-A24+ glioma Patient 3, 10 μg/ml peptide
[7] = PBMCs of HLA-A24+ glioma Patient 7, 10 μg/ml peptide
[8] = PBMCs of HLA-A24+ glioma Patient 9, 10 μg/ml peptide
[9] = PBMCs of HLA-A24+ glioma Patient 10, 10 μg/ml peptide
[10] = PBMCs of HLA-A24+ glioma Patient 4, 10 μg/ml peptide
[11] = Healthy donor 2, 1:100-diluted plasma
[12] = Healthy donor 4, 1:100-diluted plasma
[13] = glioma Patient 4, 1:100-diluted plasma
[14] = glioma Patient 8, 1:100-diluted plasma
[15] = glioma Patient 9, 1:100-diluted plasma
[16] = PBMCs of HLA-A24+ glioma Patient 5, 10 μg/ml peptide
[17] = PBMCs of HLA-A24+ glioma Patient 8, 10 μg/ml peptide

Sequence | Positive cases/total cases, Patients [1] | Positive cases/total cases, Healthy donors [1] | Positive cases/total cases, Total [1] | Recognition by IgGs in the plasma compared with the other peptides [1] | Total (patients with induction of peptide-reactive CTLs) [2, 3] | IFN-γ [2, 4] [pg/mL] | IFN-γ [2, 5] [pg/mL] | IFN-γ [2, 6] [pg/mL] | IFN-γ [2, 7] [pg/mL] | IFN-γ [2, 8] [pg/mL] | IFN-γ [2, 9] [pg/mL] | IFN-γ [2, 10] [pg/mL] | IFN-γ [2, 17] [pg/mL] | further results
GYASTDEEI (KIF21B 220-228 peptide) | 2/10 | 3/10 | 5/20 | more frequently | 4/10 | 0 | 29 | 56 | 51 | 0 | 0 | – | – | –
HYDGIECLAI (KIF21B 621-630 peptide) | 2/10 | 5/10 | 7/20 | more frequently | 3/10 | 0 | 10 | 0 | 93 | 0 | 0 | 0 | – | –
IYCERVRDL (KIF1C 149-157 peptide) | 7/10 | 8/10 | 15/20 | more frequently | 4/10 | 92 | 0 | – | – | – | 0 | 50 | 0 | Immunofluoresence intensity [1, 11]: 31.8; Immunofluoresence intensity [1, 12]: 47.8; Total (IgG-positive cases/total cases) ([1]; Table 2, glioma patients): 7/10; Total (IgG-positive cases/total cases) ([1]; Table 2, healthy donors): 8/10; Immunofluoresence intensity [1, 13]: 29.5; Immunofluoresence intensity [1, 14]: 12.3; Immunofluoresence intensity [1, 15]: 27.3; IFN-γ [2, 16]: 0 pg/mL
IYCERVRDLL [KIF1C 149-158] | – | – | – | – | – | – | – | – | – | – | – | – | – | Cytotoxicity of peptide-induced CD8+ T cells on addition of anti-HLA class I mAb (KNS-81 cells): significantly inhibited; Cytotoxicity on addition of unlabeled C1R-A24 cells pre-pulsed with corresponding KIF peptide (cold inhibition) (KNS-81 cells): significantly inhibited; Cytotoxicity of peptide-stimulated PBMCs against KNS-81 cells (KNS-81 cells): higher level of cytotoxicity against HLA-A24^+ KNS-81 cells
KYKAMESKL [KIF3C 512-520] | – | – | – | – | – | – | – | – | – | – | – | – | – | Cytotoxicity of peptide-induced CD8+ T cells on addition of anti-HLA class I mAb (KNS-81 cells): significantly inhibited; Cytotoxicity on addition of unlabeled C1R-A24 cells pre-pulsed with corresponding KIF peptide (cold inhibition) (KNS-81 cells): significantly inhibited; Cytotoxicity of peptide-stimulated PBMCs against KNS-81 cells (KNS-81 cells): higher level of cytotoxicity against HLA-A24^+ KNS-81 cells
NYLQEQKERL (KIF3C 458-467 peptide) | 4/10 | 4/10 | 8/20 | more frequently | 3/10 | 34 | 0 | 30 | – | – | 0 | – | 38 | IFN-γ [2, 16]: 66 pg/mL; IFN-γ ([2]; PBMCs of HLA-A24+ glioma Patient 6, 10 μg/ml peptide): 55 pg/mL
RFYIQMCTEL (Flu virus-derived peptide) [reference compound] | – | – | – | – | 3/10 | 29 | 0 | – | 95 | 0 | 0 | 0 | 0 | –
RYADRTKQI (KIF1C 340-348 peptide) | 7/10 | 7/10 | 14/20 | more frequently | 3/10 | 66 | 16 | – | 65 | 52 | 0 | 80 | 96 | Immunofluoresence intensity [1, 11]: 21.5; Immunofluoresence intensity [1, 12]: 45.3; Immunofluoresence intensity ([1]; Healthy donor 5, 1:100-diluted plasma): 59.0; Total (IgG-positive cases/total cases) ([1]; Table 2, glioma patients): 7/10; Total (IgG-positive cases/total cases) ([1]; Table 2, healthy donors): 7/10; Immunofluoresence intensity [1, 13]: 26.0; Immunofluoresence intensity [1, 14]: 14.8; Immunofluoresence intensity [1, 15]: 17.5
RYRAENIMF (KIF3C 702-710 peptide) | 7/10 | 9/10 | 16/20 | more frequently | 3/10 | 11 | 0 | 73 | – | 22 | 0 | 0 | 96 | –
TYGPVFMCL [EBV, reference compound] | – | – | – | – | – | – | – | – | – | – | – | – | – | Total (patients with induction of peptide-reactive CTLs) [2]: 1/10
